Test systems include 786-0; A498; CAKI-1; CCRF-CEM; COLO 205; EKVX; HCT-116; HCT-15; HL-60; Hs-578T; MOLT-4; NCI-H522; NCI/ADR-RES; OVCAR-4; OVCAR-5; RXF 393; SK-MEL-5; TK-10; UACC-62; MDA-MB-231.
Common to all, as to assay: inhibition of tumour cell growth, NCI panel, 48 h

Molecules are shown by their SMILES.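 Cells were grown in 96-well plates and exposed to each compound for 48 hours at five concentrations; endpoints were interpolated linearly between bracketing concentrations, or set to the highest concentration if not reached. GI50 is the concentration that inhibits growth by half.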 Active and inactive are the calls of the source. No stated cut-off is given here; in the data, active = GI50 up to about 1.1 µM and inactive = higher.

With `Cc1ccc(C)c2c1C/C(=C\c1ccccc1C(=O)O)C2=O`, the GI50 in the assay with 786-0 is > 100 µM (inactive); in the assay on A498 it was > 100 µM (inactive); in the assay on CAKI-1, > 100 µM (inactive); in the assay on CCRF-CEM, 55.6 µM (inactive); in the assay with COLO 205 it was > 100 µM (inactive); with EKVX, 45.7 µM (inactive). The GI50 in the assay on HCT-116 is > 100 µM (inactive); with HCT-15, 77.4 µM; with HL-60 it was 40.9 µM (inactive); with Hs-578T, > 100 µM (inactive); with MOLT-4 it was 86.9 µM (inactive); in the assay with NCI-H522 it was > 100 µM (inactive). Besides, the GI50 in the assay on NCI/ADR-RES is > 100 µM (inactive); in the assay with OVCAR-4 it was 62.7 µM (inactive); with OVCAR-5 it was > 100 µM (inactive); with RXF 393 it was > 100 µM (inactive); in the assay with SK-MEL-5, 42.7 µM (inactive); in the assay on TK-10 it was > 100 µM (inactive). In addition, the GI50 in the assay with UACC-62 is > 100 µM (inactive).
Take `CN(C)CCCn1c2c3ccccc3ccc2c2oc(=O)c3ccccc3c21`: the GI50 is 2.64 µM (inactive) with 786-0; 13.3 µM (inactive) in the assay with A498; 7.76 µM (inactive) with CAKI-1; 3.31 µM (inactive) in the assay with CCRF-CEM; 2.48 µM (inactive) in the assay with COLO 205; 12.7 µM (inactive) in the assay with EKVX. Moreover, the GI50 in the assay with HCT-116 was 2.48 µM (inactive); with HCT-15, 1.57 µM; in the assay on HL-60 it was 2.28 µM (inactive); in the assay with Hs-578T, > 36.6 µM (inactive); with MOLT-4 it was 0.986 µM (active); with NCI-H522, 3.52 µM (inactive). The GI50 is 10.8 µM (inactive) with NCI/ADR-RES; 6.38 µM (inactive) in the assay on OVCAR-4; 32.6 µM (inactive) with OVCAR-5; 1.33 µM (inactive) in the assay with RXF 393; 9.53 µM (inactive) in the assay on SK-MEL-5; 14.2 µM (inactive) in the assay on TK-10. The GI50 in the assay on UACC-62 was 8.63 µM (inactive).
In the case of `N#CCC1COc2ccccc2O1` (stereo unspecified), the GI50 in the assay on 786-0 was > 10 µM (inactive); in the assay with CAKI-1 it was > 10 µM (inactive); in the assay on CCRF-CEM it was > 10 µM (inactive); in the assay with COLO 205, > 10 µM (inactive); with HCT-116, > 10 µM (inactive); with HCT-15, greater than 10 µM. The GI50 in the assay with HL-60, with Hs-578T, in the assay with MDA-MB-231, in the assay with MOLT-4, in the assay with NCI-H522 and in the assay with NCI/ADR-RES was > 10 µM (inactive) throughout. Besides, the GI50 in the assay on OVCAR-4, with OVCAR-5, with SK-MEL-5, in the assay on TK-10 and in the assay on UACC-62 was > 10 µM (inactive) in each case.
With `CC(=O)O[C@H]1C(=O)[C@@]2(C)[C@H]([C@H](OC(=O)C3CCCCC3)[C@]3(O)C[C@H](OC(=O)[C@H](O)[C@@H](NC(=O)OC(C)(C)C)c4ccccc4)C(C)=C1C3(C)C)[C@]1(OC(C)=O)CO[C@@H]1C[C@@H]2O`, the GI50 in the assay with 786-0 is 0.0176 µM (active); with CCRF-CEM it was 0.00499 µM (active); in the assay on COLO 205, 0.013 µM (active); in the assay with EKVX, > 12.5 µM (inactive); in the assay on HCT-116, 0.00378 µM (active); in the assay on HCT-15 it was 0.268 µM. Besides, the GI50 in the assay on HL-60 is 0.00125 µM (active); in the assay with Hs-578T, 0.00548 µM (active); in the assay on MDA-MB-231 it was 0.0427 µM (active); in the assay on MOLT-4, 0.00474 µM (active); with NCI-H522 it was 0.00918 µM (active); with NCI/ADR-RES, > 3.03 µM (inactive). Moreover, the GI50 is 10.2 µM (inactive) with OVCAR-4; 0.0074 µM (active) with OVCAR-5; 0.0331 µM (active) in the assay on RXF 393; 0.0107 µM (active) in the assay on SK-MEL-5; 0.151 µM (active) in the assay with TK-10; 0.0129 µM (active) in the assay on UACC-62.
With `O=C1/C(=C\c2ccccc2)CN(C(=O)CCN2CCCCC2)C/C1=C/c1ccccc1`, the GI50 is 1.3 µM (inactive) with 786-0; 2.69 µM (inactive) in the assay on A498; 1.71 µM (inactive) in the assay on CAKI-1; 0.198 µM (active) with CCRF-CEM; 1.76 µM (inactive) in the assay on COLO 205; 3.71 µM (inactive) in the assay with EKVX. The GI50 in the assay with HCT-116 was 0.254 µM (active); with HCT-15, 1.09 µM; with HL-60, 0.313 µM (active); with Hs-578T, 0.0153 µM (active); in the assay on MDA-MB-231 it was 1.48 µM (inactive); with MOLT-4, 0.231 µM (active). Moreover, the GI50 with NCI-H522 is 0.757 µM (active); in the assay on OVCAR-4 it was 1.73 µM (inactive); in the assay on OVCAR-5 it was 1.72 µM (inactive); in the assay on RXF 393, 1.95 µM (inactive); in the assay with SK-MEL-5, 1.17 µM (inactive); in the assay with TK-10 it was 3.93 µM (inactive). Also, the GI50 with UACC-62 was 1.43 µM (inactive).
With `CSc1cc(Br)ccc1-n1c(C(=O)c2ccccc2)c(SC)n(-c2ccccc2)c1=O`, the GI50 in the assay with 786-0 was > 100 µM (inactive); with CAKI-1, > 100 µM (inactive); in the assay with COLO 205, 47.2 µM (inactive); in the assay on EKVX, > 100 µM (inactive); in the assay on HCT-116, 49.3 µM (inactive); in the assay on HCT-15 it was 23 µM. Further, the GI50 is > 100 µM (inactive) in the assay on Hs-578T; 39.8 µM (inactive) in the assay on MDA-MB-231; 5.28 µM (inactive) in the assay with MOLT-4; 54.6 µM (inactive) with NCI-H522; 53.8 µM (inactive) in the assay with NCI/ADR-RES; > 100 µM (inactive) in the assay with OVCAR-4. For the same molecule, the GI50 is > 100 µM (inactive) in the assay on OVCAR-5, 67.8 µM (inactive) with SK-MEL-5, > 100 µM (inactive) in the assay with TK-10 and > 100 µM (inactive) in the assay on UACC-62.
Take `CC1=C(C#N)C23C(=O)c4ccccc4C(=O)C2=C(O)C=CC3(O)N1` (stereo unspecified): the GI50 with 786-0 was 2.2 µM (inactive); in the assay with A498, 21 µM (inactive); in the assay on CAKI-1, 4.06 µM (inactive); in the assay on CCRF-CEM it was 0.365 µM (active); in the assay on COLO 205, 2.03 µM (inactive); in the assay with EKVX, 5.82 µM (inactive). Further, the GI50 is 5.68 µM (inactive) in the assay on HCT-116; 2.44 µM in the assay with HCT-15; 0.313 µM (active) in the assay on HL-60; 8.83 µM (inactive) in the assay with MDA-MB-231; 0.484 µM (active) with MOLT-4; 1.48 µM (inactive) in the assay with NCI-H522. Also, the GI50 with NCI/ADR-RES is 7.83 µM (inactive); in the assay with OVCAR-4, 1.97 µM (inactive); in the assay with OVCAR-5, 4.76 µM (inactive); with RXF 393, 3.8 µM (inactive); in the assay on SK-MEL-5, 1.06 µM (active); in the assay with TK-10, 14.3 µM (inactive). In addition, in the assay on UACC-62, the GI50 was 2.52 µM (inactive).
Regarding `CC(C)(C)OC(=O)c1ccc(NCC2=C(Br)C(=O)C=CC2=O)cc1`, the GI50 in the assay with 786-0 is 17.5 µM (inactive); in the assay with CAKI-1 it was 11.6 µM (inactive); in the assay on CCRF-CEM, 2.42 µM (inactive); with COLO 205, 18.2 µM (inactive); with EKVX it was 19.7 µM (inactive); in the assay with HCT-116, 17.7 µM (inactive). The GI50 in the assay on HCT-15 was 15.6 µM; in the assay on HL-60, 1.79 µM (inactive); with Hs-578T, 19.1 µM (inactive); with MDA-MB-231 it was 19.1 µM (inactive); with MOLT-4, 1.42 µM (inactive); with NCI-H522, 4.47 µM (inactive). In addition, the GI50 in the assay on NCI/ADR-RES was 20.1 µM (inactive); in the assay with OVCAR-4, 14.1 µM (inactive); in the assay with OVCAR-5, 23.1 µM (inactive); in the assay with RXF 393 it was 13.7 µM (inactive); in the assay on SK-MEL-5, 15.9 µM (inactive); with TK-10, 22.1 µM (inactive). Further, the GI50 with UACC-62 is 16.6 µM (inactive).
For `c1ccc(Sc2nc(Sc3ccccc3)nc(Sc3ccccc3)n2)cc1`, the GI50 was 29.9 µM (inactive) in the assay on A498; 38.9 µM (inactive) with CAKI-1; 6.46 µM (inactive) with CCRF-CEM; 18.6 µM (inactive) with COLO 205; 35 µM (inactive) with EKVX; 60.1 µM (inactive) in the assay with HCT-116. Also, the GI50 was 33.4 µM in the assay with HCT-15; 6.38 µM (inactive) in the assay with HL-60; 13.3 µM (inactive) in the assay with Hs-578T; > 100 µM (inactive) with MDA-MB-231; 17.8 µM (inactive) in the assay with MOLT-4; 97.1 µM (inactive) in the assay on NCI-H522. Further, the GI50 in the assay on OVCAR-4 was 55 µM (inactive); in the assay on OVCAR-5 it was 58.7 µM (inactive); in the assay on RXF 393, 61.7 µM (inactive); in the assay on SK-MEL-5, > 100 µM (inactive); in the assay with TK-10, 44.6 µM (inactive); in the assay on UACC-62 it was > 100 µM (inactive).
On to `CCOC(=O)C(C(=O)OCC)=C1NC2(c3ccccc3Nc3ccccc32)C(C#N)S1` (stereo unspecified), for which the GI50 in the assay with 786-0 was 10.4 µM (inactive); in the assay with A498, 13.8 µM (inactive); in the assay with CAKI-1 it was 16.3 µM (inactive); in the assay on CCRF-CEM it was 6.08 µM (inactive); with COLO 205, 6.75 µM (inactive); in the assay on EKVX, 13.7 µM (inactive). Besides, the GI50 was 9.89 µM (inactive) in the assay with HCT-116; 5.78 µM with HCT-15; 21.9 µM (inactive) in the assay on HL-60; 19.1 µM (inactive) in the assay on Hs-578T; 3.53 µM (inactive) with MOLT-4; 13.9 µM (inactive) in the assay with NCI-H522. Besides, the GI50 with NCI/ADR-RES is 10.4 µM (inactive); in the assay on OVCAR-4 it was 4.3 µM (inactive); with OVCAR-5 it was 16.7 µM (inactive); with RXF 393 it was 12.9 µM (inactive); in the assay on SK-MEL-5, 10 µM (inactive); in the assay on TK-10, 13.5 µM (inactive). Also, the GI50 in the assay on UACC-62 is 10.3 µM (inactive).
Consider `Nc1ccc2c(c1)NCCN2`, for which the GI50 with 786-0 was > 100 µM (inactive); in the assay on CAKI-1, 12.9 µM (inactive); in the assay with COLO 205, 9.66 µM (inactive); in the assay with EKVX, 54.1 µM (inactive); in the assay on HCT-116 it was > 100 µM (inactive); in the assay on HCT-15 it was 61.9 µM. In addition, the GI50 in the assay with HL-60 is 9.71 µM (inactive); in the assay on Hs-578T, 7.76 µM (inactive); in the assay with MDA-MB-231 it was > 100 µM (inactive); in the assay on MOLT-4 it was 2.75 µM (inactive); with NCI-H522 it was 7.64 µM (inactive); in the assay on NCI/ADR-RES, > 100 µM (inactive). In addition, the GI50 in the assay with OVCAR-4 was > 100 µM (inactive); in the assay on OVCAR-5, > 100 µM (inactive); in the assay with RXF 393, > 100 µM (inactive); with SK-MEL-5, 5.11 µM (inactive); with TK-10, 55.7 µM (inactive); in the assay on UACC-62, 5.13 µM (inactive).

The record behind these values is ChEMBL document CHEMBL1201862, “PubChem BioAssay data set” (2004).
